Where a name gives a salt, the structure may show the parent alone. Read-outs that look alike come from different tables or passages of the source.

What all share (type): biochemical
One experiment has as its target T1, recombinant human VAP-1 (Homo sapiens, UniProt Q16853).
T1 construct: purchased R&D systems
T1 sequence (Q16853 1-763): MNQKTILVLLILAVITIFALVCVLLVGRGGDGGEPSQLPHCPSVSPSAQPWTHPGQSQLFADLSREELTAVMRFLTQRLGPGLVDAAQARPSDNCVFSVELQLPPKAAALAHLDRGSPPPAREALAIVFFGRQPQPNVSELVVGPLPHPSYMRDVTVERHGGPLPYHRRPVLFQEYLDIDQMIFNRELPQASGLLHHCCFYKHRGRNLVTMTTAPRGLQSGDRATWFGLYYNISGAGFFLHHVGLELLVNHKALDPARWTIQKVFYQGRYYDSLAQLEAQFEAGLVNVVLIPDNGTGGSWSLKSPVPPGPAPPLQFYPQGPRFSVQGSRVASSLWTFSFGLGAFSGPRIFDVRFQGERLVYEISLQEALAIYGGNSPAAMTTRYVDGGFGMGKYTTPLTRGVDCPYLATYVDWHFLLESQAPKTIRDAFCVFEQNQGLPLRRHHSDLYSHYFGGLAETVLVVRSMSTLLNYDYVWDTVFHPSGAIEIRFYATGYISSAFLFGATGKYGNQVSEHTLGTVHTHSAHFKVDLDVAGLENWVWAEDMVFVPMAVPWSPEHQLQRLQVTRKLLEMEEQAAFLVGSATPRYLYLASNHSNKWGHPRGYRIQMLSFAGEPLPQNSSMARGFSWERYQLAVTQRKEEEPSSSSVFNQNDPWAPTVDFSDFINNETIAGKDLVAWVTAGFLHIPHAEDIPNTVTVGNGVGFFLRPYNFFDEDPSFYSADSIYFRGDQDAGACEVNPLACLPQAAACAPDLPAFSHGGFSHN
Nature of the experiment: Activity evaluation on recombinant human VAP-1 (Amplex Red/HRP-coupled hydrogen peroxide assay, benzylamine substrate). The note with it: read-out: Inhibitory Activity (IC50, nM) human VAP-1. The method in brief: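 Hydrogen peroxide from benzylamine (1 mM) oxidation by human recombinant VAP-1 detected via HRP-coupled Amplex Red (200 uM) fluorescence, kinetic over 1–2 h. Enzyme and compound preincubated 30 min at 37 °C, pH 7.4 phosphate; 8-point dose response, signal-rate decrease versus DMSO control fitted to four-parameter logistic for IC50.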

Experiment [1] addresses T2, recombinant human MAO-A (monoamine oxidase-A) (Homo sapiens, UniProt P21397).
T2 construct: purchased Sigma-Aldrich
T2 sequence (P21397 1-527): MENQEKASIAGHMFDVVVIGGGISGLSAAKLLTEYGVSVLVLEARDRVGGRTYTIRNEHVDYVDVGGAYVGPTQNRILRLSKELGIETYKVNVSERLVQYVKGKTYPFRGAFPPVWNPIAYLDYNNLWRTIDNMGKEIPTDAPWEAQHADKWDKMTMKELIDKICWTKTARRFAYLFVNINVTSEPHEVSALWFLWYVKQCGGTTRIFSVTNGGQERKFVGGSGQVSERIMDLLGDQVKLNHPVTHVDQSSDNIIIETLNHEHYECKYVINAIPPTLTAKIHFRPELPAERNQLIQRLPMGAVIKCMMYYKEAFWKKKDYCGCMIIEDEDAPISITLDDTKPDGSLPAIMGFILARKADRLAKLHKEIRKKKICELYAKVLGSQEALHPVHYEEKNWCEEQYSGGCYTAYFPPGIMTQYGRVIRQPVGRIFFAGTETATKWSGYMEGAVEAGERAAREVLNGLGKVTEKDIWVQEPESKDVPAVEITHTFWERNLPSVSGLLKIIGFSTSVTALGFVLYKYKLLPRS
Nature of the experiment: Activity evaluation on recombinant human MAO-A (Amplex Red/HRP-coupled assay, 0.5 mM tyramine substrate). The following applies: read-out: Inhibitory Activity (IC50, nM) MAO-A. In outline: (§1)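 Each oxidase is tested with its own substrate: MAO-A with 0.5 mM tyramine, MAO-B with 1 mM benzylamine, DAO with 1 mM putrescine. After 30 min enzyme-compound preincubation at 37 °C, Amplex Red (200 uM) plus HRP (1 U/mL) reports H2O2 as fluorescence; IC50 is fitted from eight-point curves.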

Experiment [2] addresses T3, recombinant human MAO-B (monoamine oxidase-B) (Homo sapiens, UniProt P27338).
T3 construct: purchased Sigma-Aldrich
T3 sequence (P27338 1-520): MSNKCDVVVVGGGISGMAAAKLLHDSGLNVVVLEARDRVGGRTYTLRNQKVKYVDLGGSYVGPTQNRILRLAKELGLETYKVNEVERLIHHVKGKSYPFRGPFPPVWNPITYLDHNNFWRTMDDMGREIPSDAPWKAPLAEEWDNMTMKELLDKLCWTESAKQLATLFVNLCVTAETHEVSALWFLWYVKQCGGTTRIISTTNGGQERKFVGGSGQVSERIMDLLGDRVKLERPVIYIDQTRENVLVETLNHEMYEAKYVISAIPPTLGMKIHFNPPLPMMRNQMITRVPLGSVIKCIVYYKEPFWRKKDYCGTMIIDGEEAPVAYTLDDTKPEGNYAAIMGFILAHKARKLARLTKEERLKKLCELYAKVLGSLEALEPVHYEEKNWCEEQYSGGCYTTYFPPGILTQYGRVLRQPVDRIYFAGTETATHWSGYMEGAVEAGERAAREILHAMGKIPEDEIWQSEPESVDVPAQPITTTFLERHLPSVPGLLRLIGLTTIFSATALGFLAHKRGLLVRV
Nature of the experiment: Activity evaluation on recombinant human MAO-B (Amplex Red/HRP-coupled assay, 1 mM benzylamine substrate). The note with it: read-out: Inhibitory Activity (IC50, nM) MAO-B. The method in brief:
as §1

Experiment [3] addresses T4, recombinant human DAO (diamine oxidase) (Homo sapiens, UniProt P19801).
T4 construct: purchased R&D systems
T4 sequence (P19801 20-751): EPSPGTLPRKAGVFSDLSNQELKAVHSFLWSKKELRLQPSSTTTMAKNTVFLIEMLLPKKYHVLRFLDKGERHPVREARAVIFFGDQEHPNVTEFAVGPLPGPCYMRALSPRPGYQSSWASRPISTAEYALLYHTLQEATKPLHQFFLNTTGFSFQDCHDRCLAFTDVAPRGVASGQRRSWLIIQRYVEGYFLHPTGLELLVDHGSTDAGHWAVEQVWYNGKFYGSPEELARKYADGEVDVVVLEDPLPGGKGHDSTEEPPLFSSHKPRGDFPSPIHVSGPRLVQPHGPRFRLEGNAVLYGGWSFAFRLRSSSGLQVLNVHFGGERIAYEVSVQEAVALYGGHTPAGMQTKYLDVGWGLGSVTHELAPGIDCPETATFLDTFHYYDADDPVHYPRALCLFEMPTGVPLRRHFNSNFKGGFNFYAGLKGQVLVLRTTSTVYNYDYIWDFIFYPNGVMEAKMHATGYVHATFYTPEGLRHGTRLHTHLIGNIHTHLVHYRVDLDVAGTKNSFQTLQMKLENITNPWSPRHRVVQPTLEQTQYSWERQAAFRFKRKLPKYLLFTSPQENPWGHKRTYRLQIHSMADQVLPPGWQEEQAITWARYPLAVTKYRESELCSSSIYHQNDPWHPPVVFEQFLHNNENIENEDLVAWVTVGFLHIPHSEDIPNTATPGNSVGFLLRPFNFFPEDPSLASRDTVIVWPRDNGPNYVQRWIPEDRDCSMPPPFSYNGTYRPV
The experiment can be described thus: Activity evaluation on recombinant human DAO (Amplex Red/HRP-coupled assay, 1 mM putrescine substrate). The following applies: read-out: Inhibitory Activity (IC50, nM) DAO. In outline:
as §1

Setting [4] is: recombinant human VAP-1, 30 min preincubation at 37° C., 1 mM benzylamine.
Where [5] appears, read: recombinant human VAP-1, benzylamine substrate.

For orientation: IC50 means the concentration that gives 50% inhibition. `CN(C)c1ccc(-c2cccc(-n3cnn(CC(CN)=C(F)F)c3=O)c2)cn1` [Example 20, 2-[2-(aminomethyl)-3,3-difluoro-allyl]-4-[3-[6-(dimethylamino)-3-pyridyl]phenyl]-1,2,4-triazol-3-one Trifluoroacetate]: the IC50 on recombinant human VAP-1 (setting [4]) was 2.1 nM; in experiment [1] (0.5 mM tyramine), above 100000 nM; in experiment [2] (1 mM benzylamine), above 100000 nM; in experiment [3] (1 mM putrescine), 350 nM.
In the case of `NCC(Cn1ncn(Cc2ccc(-c3cc(F)c4c(c3)CC(=O)N4)s2)c1=O)=C(F)F` [Example 130, 5-[5-[[1-[2-(aminomethyl)-3,3-difluoro-allyl]-5-oxo-1,2,4-triazol-4-yl]methyl]-2-thienyl]-7-fluoro-indolin-2-one Trifluoroacetate], the IC50 on recombinant human VAP-1 (setting [4]) was 0.7 nM; in experiment [1] (0.5 mM tyramine), above 100000 nM; in experiment [2] (1 mM benzylamine) it was above 100000 nM; in experiment [3] (1 mM putrescine), above 100000 nM.
Turning to `Cc1cc(-c2ccc3c(c2)OCO3)cnc1-n1cnn(CC(CN)=C(F)F)c1=O` [Example 72, 2-[2-(aminomethyl)-3,3-difluoro-allyl]-4-[5-(1,3-benzodioxol-5-yl)-3-methyl-2-pyridyl]-1,2,4-triazol-3-one Trifluoroacetate], the IC50 is 0.5 nM on recombinant human VAP-1 (setting [4]), above 100000 nM in experiment [1] (0.5 mM tyramine), 1500 nM in experiment [2] (1 mM benzylamine) and 57000 nM in experiment [3] (1 mM putrescine).
As to `Cc1c(-c2ccc(C(F)(F)F)nc2)cccc1-n1cnn(CC(CN)=C(F)F)c1=O` [Example 255, 2-[2-(aminomethyl)-3,3-difluoro-allyl]-4-[2-methyl-3-[6-(trifluoromethyl)-3-pyridyl]phenyl]-1,2,4-triazol-3-one Trifluoroacetate], the IC50 on recombinant human VAP-1 (setting [5]) was 2.3 nM; in experiment [1] (0.5 mM tyramine substrate), above 100000 nM; in experiment [2] (1 mM benzylamine substrate), above 100000 nM; in experiment [3] (1 mM putrescine substrate), 35000 nM.
Regarding `NCC(Cn1ncn(Cc2cc3ccc(-c4ccc5c(c4)OCO5)cc3s2)c1=O)=C(F)F` [Example 201, 2-[2-(aminomethyl)-3,3-difluoro-allyl]-4-[[6-(1,3-benzodioxol-5-yl)benzothiophen-2-yl]methyl]-1,2,4-triazol-3-one Trifluoroacetate], the IC50 on recombinant human VAP-1 (setting [5]) came to 2.8 nM; in experiment [1] (0.5 mM tyramine substrate), 90800 nM; in experiment [2] (1 mM benzylamine substrate), 2000 nM; in experiment [3] (1 mM putrescine substrate), 27000 nM.
On the same counts, the results for `CN(C)c1ccc(-c2ccccc2Cn2cnn(CC(CN)=C(F)F)c2=O)cn1` [Example 281, 2-[2-(aminomethyl)-3,3-difluoro-allyl]-4-[[2-[6-(dimethylamino)-3-pyridyl]phenyl]methyl]-1,2,4-triazol-3-one Trifluoroacetate] are 307 nM, above 100000 nM, above 100000 nM and 4860 nM.
For the molecule `NCC(Cn1ncn(-c2ncc(-c3ccc4c(c3)OCO4)cc2F)c1=O)=C(F)F` [Example 85, 2-[2-(aminomethyl)-3,3-difluoro-allyl]-4-[5-(1,3-benzodioxol-5-yl)-3-fluoro-2-pyridyl]-1,2,4-triazol-3-one Trifluoroacetate], the IC50 at recombinant human VAP-1 (setting [4]) is 0.2 nM; in experiment [1] (0.5 mM tyramine), above 100000 nM; in experiment [2] (1 mM benzylamine), 130 nM; in experiment [3] (1 mM putrescine), 180 nM.
Regarding `Cc1cc(-c2cnc3[nH]ccc3c2)cnc1-n1cnn(CC(CN)=C(F)F)c1=O` [Example 228, 2-[2-(aminomethyl)-3,3-difluoro-allyl]-4-[3-methyl-5-(1H-pyrrolo[2,3-b]pyridin-5-yl)-2-pyridyl]-1,2,4-triazol-3-one Trifluoroacetate], the IC50 is 0.6 nM at recombinant human VAP-1 (setting [5]), above 100000 nM in experiment [1] (0.5 mM tyramine substrate), 3300 nM in experiment [2] (1 mM benzylamine substrate) and 7700 nM in experiment [3] (1 mM putrescine substrate).
Taken in the same sequence, the figures for `CCn1cc(-c2cc(F)c(Cn3cnn(CC(CN)=C(F)F)c3=O)s2)ccc1=O` [Example 299, 5-[5-[[1-[2-(aminomethyl)-3,3-difluoro-allyl]-5-oxo-1,2,4-triazol-4-yl]methyl]-4-fluoro-2-thienyl]-1-ethyl-pyridin-2-one Trifluoroacetate] were 1.4 nM, above 100000 nM, above 100000 nM and 9680 nM.
For the molecule `CN(C)c1cc(-c2cccc(-n3cnn(CC(CN)=C(F)F)c3=O)n2)ccc1F` [Example 217, 2-[2-(aminomethyl)-3,3-difluoro-allyl]-4-[6-[3-(dimethylamino)-4-fluoro-phenyl]-2-pyridyl]-1,2,4-triazol-3-one Trifluoroacetate], the IC50 was 1.1 nM at recombinant human VAP-1 (setting [5]), above 100000 nM in experiment [1] (0.5 mM tyramine substrate), 13700 nM in experiment [2] (1 mM benzylamine substrate) and 1500 nM in experiment [3] (1 mM putrescine substrate).
`CCn1cc(-c2cnc(-n3cnn(CC(CN)=C(F)F)c3=O)c(F)c2)cn1` [Example 88, 2-[2-(aminomethyl)-3,3-difluoro-allyl]-4-[5-(1-ethylpyrazol-4-yl)-3-fluoro-2-pyridyl]-1,2,4-triazol-3-one Trifluoroacetate]: the IC50 was 0.3 nM at recombinant human VAP-1 (setting [4]), above 100000 nM in experiment [1] (0.5 mM tyramine), 8200 nM in experiment [2] (1 mM benzylamine) and 230 nM in experiment [3] (1 mM putrescine).

The record behind these values is patent US11168073B2, “3,3-difluoroallylamines or salts thereof and pharmaceutical compositions comprising the same” (YUHAN CORPORATION, priority 2018, dated 2021).
